Among the data in PubChem BioAssay AID588780 (Sanford-Burnham Center for Chemical Genomics, 2011) are IC50 values, retold here.

Usually IC50 stands for the concentration at which inhibition is half-maximal.

Active and inactive are the calls of the source.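 The calls were made as follows: active = compounds whose fitted half-maximal concentration in the cell-protection dose series is at or below a set limit; inactive = the rest.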 A value given as a limit tells only on which side of the number the result lay.

The test concerns H9c2 cardiomyocytes, 2-deoxyglucose stress, ATP luminescence, 2 h. Put plainly: H9c2 cell survival under 2-deoxyglucose stress – uHTS hits, dose response (AID 588780).
Take `COC(=O)c1ccc(C(NC(=O)OCc2ccccc2)/C(C)=C/[C@@H](C)C(=O)NCc2ccc(OC)c(OC)c2)cc1` (stereo partly specified): the IC50 was 22.8 µM.

For the compound `COc1ccc(OC)c(C(=O)COC(=O)c2ccc([N+](=O)[O-])o2)c1`, the IC50 was > 79 µM (inactive).

As to `O=S(=O)(c1ccccc1)N1CCN(c2nc(-c3cccnc3)nc3ccccc23)CC1`, the IC50 was 12.4 µM.

As for `CN(C)C(=O)/C=C\c1cn(-c2ccccc2)nc1-c1ccc2c(c1)OCCO2`, the IC50 was > 79 µM (inactive).

For `C[C@H](CO)N1C[C@H](C)[C@@H](CN(C)C(=O)Nc2ccc3c(c2)OCO3)Oc2c(NC(=O)Nc3ccc(C(F)(F)F)cc3)cccc2C1=O`, the IC50 is > 79 µM (inactive).

For the compound `Cc1sc2nc(CSCC(=O)N(C)c3ccccc3)[nH]c(=O)c2c1C`, the IC50 was 29.8 µM.

In the case of `CCCN1Cc2cccc(C(N)=O)c2C1=O`, the IC50 was > 79 µM (inactive).

With `CCOC(=O)C1=C(COC(=O)c2ccc([N+](=O)[O-])o2)NC(=O)NC1C` (stereo unspecified), the IC50 was > 79 µM (inactive).

On to `COc1ccc(/C=C/C(=O)c2ccccc2O)cc1CN1CCOCC1`, for which the IC50 was 36.7 µM (inactive).

With `COc1ccccc1NC(=O)COc1ccc(C(=O)OCC(=O)NC(C)(C)C)cc1OC`, the IC50 is 17.6 µM.

`Cc1cc(C)n2nc(C(=O)N/N=C/c3c4ccccc4cc4ccccc34)nc2n1`: the IC50 is > 79 µM (inactive).

For the compound `CC(C)(C)NC(=O)c1cccc(NC(=O)c2ccc(NC(=O)c3ccco3)cc2)c1`, the IC50 was 15.4 µM.

`CCc1cc2cccc(C)c2nc1SCC(=O)N1CCN(C(=O)c2ccco2)CC1`: the IC50 is > 79 µM (inactive).

Take `O=C(c1ccccc1)c1ccc2nc(N3CCN(C(=O)c4ccco4)CC3)c3nncn3c2c1`: the IC50 was 14.9 µM.

In the case of `CCCCN(Cc1nc2ccccc2c(=O)[nH]1)C(=O)CN1C(=O)NC2(CCCCC2)C1=O`, the IC50 is > 79 µM (inactive).

Consider `CC(=O)NCc1ccc(-c2csc(NC(=O)CCc3nc4ccccc4c(=O)[nH]3)n2)s1`, for which the IC50 is > 79 µM (inactive).

In the case of `COc1ccccc1-c1cc2nc(-c3ccccc3)cc(N3CCN(C(=O)c4ccoc4)CC3)n2n1`, the IC50 is > 79 µM (inactive).

For the compound `COc1ccccc1NC(=O)CSc1ccc2nnc(-c3ccc(C)cc3)n2n1`, the IC50 is > 79 µM (inactive).

As to `CN(C)CCCNc1ccc(-c2n[nH]c(=O)c3ccccc23)cc1[N+](=O)[O-]`, the IC50 was > 79 µM (inactive).

On to `COc1cc(-c2cnc3c(NC=O)cc(-c4cccc(NC(C)=O)c4)cn23)cc(OC)c1OC`, for which the IC50 is > 79 µM (inactive).

Turning to `Nc1cc2[nH]c(=O)c3ccccc3c2cc1Br`, the IC50 is > 79 µM (inactive).

As for `O=C1NC(c2ccc(Cl)c([N+](=O)[O-])c2)Nc2ccccc21` (stereo unspecified), the IC50 is > 79 µM (inactive).

Turning to `Cc1ccc(C(C(=O)NCc2ccccc2)N(Cc2ccco2)C(=O)c2snc(C(N)=O)c2N)o1` (stereo unspecified), the IC50 is > 79 µM (inactive).

Regarding `CCOC(=O)c1cnc(Nc2nc3ccccc3o2)nc1CSc1nnc(C)s1`, the IC50 was > 79 µM (inactive).

As to `CC(C)Cn1c(N)c(C(=O)COC(=O)CCc2nc3ccccc3c(=O)[nH]2)c(=O)n(C)c1=O`, the IC50 was > 79 µM (inactive).

For the compound `Cc1cc(NC(=O)COc2nnc(-c3ccccc3)c3ccccc23)no1`, the IC50 was > 79 µM (inactive).

On to `CN1C(=O)CSc2ccc(NC(=O)Nc3ccccn3)cc21`, for which the IC50 was > 79 µM (inactive).

As to `O=c1cc(CSc2nc3ccccc3c(=O)[nH]2)c2ccc(O)cc2o1`, the IC50 is > 79 µM (inactive).

On to `COc1cc2c(cc1OC)CN(CC(=O)Nc1ccccc1C#N)CC2`, for which the IC50 was 44.1 µM (inactive).

In the case of `C[C@H](CO)N1C[C@H](C)[C@@H](CN(C)S(=O)(=O)c2ccccc2)Oc2ccc(NC(=O)Nc3ccccc3)cc2C1=O`, the IC50 is 24.2 µM.

As to `COc1cc(/C=c2\s/c(=C(/C#N)C(=O)N3CCCC3)n(-c3ccccc3)c2=O)ccc1O`, the IC50 was 25 µM.

On to `COc1ccc(N(CC(=O)N/N=C/c2cccs2)S(=O)(=O)c2ccc(OC)c(OC)c2)cc1`, for which the IC50 was 27.8 µM.

As to `CC(C)COP(=O)(OCC(C)C)C(Nc1ccccc1)c1ccc2c(c1)OCO2` (stereo unspecified), the IC50 is > 79 µM (inactive).

Regarding `O=C(Nc1cccc(Cl)c1)c1nc[nH]c1C(=O)NCCCNC(=O)c1[nH]cnc1C(=O)Nc1cccc(Cl)c1`, the IC50 is > 79 µM (inactive).

On to `Cc1nnc(SCC(=O)N/N=C/c2cn(-c3ccccc3)nc2-c2ccccc2)n1-c1ccccc1`, for which the IC50 was 14 µM.

For `O=c1[nH]nc(-c2ccc(NCCCO)c([N+](=O)[O-])c2)c2ccccc12`, the IC50 was > 79 µM (inactive).

With `COc1cc(/C=N/NC(=O)c2cccnc2)ccc1OS(=O)(=O)c1cc(C)ccc1C`, the IC50 is > 79 µM (inactive).

`COc1ccc(-n2cc(-c3ccccc3)c3c(N4CCOCC4)ncnc32)cc1`: the IC50 is > 79 µM (inactive).

With `COc1ccc(NS(=O)(=O)c2ccc3ccccc3c2)c2ncccc12`, the IC50 was > 79 µM (inactive).

With `CCOC(=O)C1CCN(c2cc3c(cc2NC(=O)c2ccc(OC)c(OC)c2)n(C)c(=O)n3C)CC1`, the IC50 is > 79 µM (inactive).

For the compound `COc1cc(OC)cc(C(=O)Nc2ccc(-c3nc4ccccc4o3)cc2)c1`, the IC50 was > 79 µM (inactive).

Turning to `O=C(COc1cccc2c1CCNC2=O)NC1CCCCC1`, the IC50 is > 79 µM (inactive).

On to `COc1cccc(/C=N/NC(=O)c2nc(-c3ccccc3)cc(-c3ccccc3)n2)c1`, for which the IC50 is > 79 µM (inactive).

On to `O=P(Nc1ccccc1)(Oc1ccccc1)Oc1ccccc1`, for which the IC50 was > 79 µM (inactive).

As for `CCCc1cc(=O)oc2c(CNc3ccc(OCC)cc3)c(O)ccc12`, the 50% inhibitory concentration (IC50) is 17.4 µM.

In the case of `COc1ccc([N+](=O)[O-])cc1NC(=O)C(C)OC(=O)Cn1[nH]c(=O)c2ccccc2c1=O` (stereo unspecified), the IC50 is 40 µM (inactive).

For the compound `O=C(CCc1nc2ccccc2c(=O)[nH]1)N1CCCc2ccccc21`, the IC50 is > 79 µM (inactive).

For `CCOC(=O)C1=C(C)N=c2s/c(=C\c3ccncc3)c(=O)n2C1c1ccc2c(c1)OCO2` (stereo unspecified), the IC50 is 41.1 µM (inactive).

`CCN(Cc1ccccc1)C(=O)c1cc2c(=O)oc3ccc(C)cc3c2s1`: the IC50 was > 79 µM (inactive).

In the case of `COc1cc(-c2cc(NC(C)=O)c3ncc(-c4ccccc4)n3c2)cc(OC)c1OC`, the IC50 is > 79 µM (inactive).

Turning to `COc1cccc(-c2nn3c(-c4ccco4)nnc3s2)c1`, the IC50 was > 79 µM (inactive).

For `C#Cc1cc(N2CCN(C(=O)c3ccoc3)CC2)n2nc(-c3cccc(Cl)c3)cc2n1`, the IC50 is > 79 µM (inactive).

On to `N#Cc1c(-c2cccs2)cc(-c2cccnc2)nc1N`, for which the IC50 was > 79 µM (inactive).

In the case of `COc1cc(/C=N/NC(=O)c2ccccc2)ccc1OS(=O)(=O)c1ccccc1`, the IC50 was 9.14 µM.

For the compound `COC(=O)c1ccc2c(=O)[nH]c(COC(=O)c3[nH]c(C)c(C(C)=O)c3C)nc2c1`, the IC50 is > 79 µM (inactive).

`Cc1cccc(C(=O)N/N=C2\CS(=O)(=O)N(C)c3ccsc32)c1`: the IC50 was 6.21 µM.

With `COc1cc(-n2c(=O)c3ccccc3n(Cc3cc(=O)n4ccccc4n3)c2=O)cc(OC)c1OC`, the IC50 was > 79 µM (inactive).

Regarding `Cc1ccc(C)c(C(=O)COC(=O)Cn2[nH]c(=O)c3ccccc3c2=O)c1`, the IC50 was > 79 µM (inactive).

Consider `O=C(COC(=O)c1c2c(nc3ccccc13)/C(=C/c1cccc([N+](=O)[O-])c1)CCC2)NC1CCS(=O)(=O)C1` (stereo unspecified), for which the IC50 was 13.4 µM.

Consider `Cc1ccc(S(=O)(=O)N2CCN(C(=O)CCc3nc4ccccc4c(=O)[nH]3)CC2)c(C)c1`, for which the IC50 is > 79 µM (inactive).

Consider `COc1ccc(C(=O)Nc2nc(-c3ccccn3)cs2)cc1S(=O)(=O)N1CCOCC1`, for which the IC50 is 16.1 µM.

Turning to `COc1ccc(-c2cc(C(F)F)n3ncc(C(=O)Nc4ccc(C(=O)N5CCOCC5)cc4)c3n2)cc1`, the IC50 is > 79 µM (inactive).

For `COc1ccc(CCCNC(=O)C2(C)Cc3c(-c4ccc(NC(C)=O)cc4)ccnc3O2)cc1` (stereo unspecified), the IC50 was > 79 µM (inactive).

With `CC(OC(=O)c1cc2c(ccc3ccccc32)oc1=O)c1nc2ccccc2s1` (stereo unspecified), the IC50 is 15.7 µM.

For `O=c1[nH]c2cc([N+](=O)[O-])ccc2c2ccccc12`, the IC50 is > 79 µM (inactive).

Regarding `COc1ccc(NC(=O)CCc2nc3ccccc3c(=O)[nH]2)cc1S(=O)(=O)N1CCCCC1`, the IC50 is > 79 µM (inactive).

For the compound `CC(C)(C)OC(=O)C[C@@H]1C/C=C\C[C@@H](CC(=O)N[C@H](CO)Cc2ccccc2)C(=O)NC[C@@H](c2ccccc2)OC1=O`, the IC50 is > 79 µM (inactive).

Turning to `COCCN1CCN(c2c3c(nc4cc(-c5cccc(F)c5)nn24)CCC3)CC1`, the IC50 was 60.1 µM (inactive).

Consider `O=C(Nc1ccccc1)c1nc[nH]c1C(=O)NCCNC(=O)c1[nH]cnc1C(=O)Nc1ccccc1`, for which the IC50 was > 79 µM (inactive).

Take `CC(=O)c1cccc(NC(=O)Nc2ccc3c(c2)N(C)C(=O)CS3)c1`: the IC50 was > 79 µM (inactive).

Turning to `Cc1c(O)ccc2c(-c3ccccc3)cc(=O)oc12`, the IC50 is 24.5 µM.

As for `COc1ccc(N(CC(=O)Nc2ccc3c(c2)OCO3)S(=O)(=O)c2ccccc2)c(OC)c1`, the IC50 is 15.4 µM.

Take `CCOc1cc(/C=N\NC(=O)c2ccc(NC(=O)C(C)(C)C)cc2)ccc1OC(=O)c1cccc(C)c1`: the IC50 was 15.3 µM.

As for `CCN1CCN(c2nc3c(c(=O)[nH]2)CCC3)CC1`, the IC50 is > 79 µM (inactive).

For `COc1cc(NC(=O)c2c(OC)cccc2OC)ccc1NC(=O)c1cc2ccccc2o1`, the IC50 was 12.7 µM.

As to `O=C(N/N=C/c1ccncc1)c1ccc(COc2cccc3cccnc23)cc1`, the IC50 was > 79 µM (inactive).

Consider `COc1ccc(N(CC(=O)NCCSc2ccccc2)S(=O)(=O)c2ccccc2)c(OC)c1`, for which the IC50 was 12.3 µM.

Consider `CCCNC(=O)c1c(N)n(-c2cccc(OC)c2)c2nc3ccccc3nc12`, for which the IC50 was > 79 µM (inactive).

In the case of `NC(=O)c1cccc2c1C(=O)N(C1CCCCC1)C2`, the IC50 is > 79 µM (inactive).

Turning to `O=C(CSC1=NNC(c2ccccn2)S1)Nc1cccc(Cl)c1` (stereo unspecified), the IC50 is > 79 µM (inactive).

Consider `CCCCCCn1cnc2c(c1=O)c1nc3ccccc3nc1n2/N=C/c1ccco1`, for which the IC50 was > 79 µM (inactive).
